# Literature values in patent US20250387524A1, “METHOD AND SYSTEM FOR THE PRODUCTION OF DISINFECTION AND/OR STERILISATION SOLUTIONS” (UNIVERSITAT JAUME I, priority 2022, published 2025).
# Conditions: EU-US approved
row,SMILES,Minimum biocidal concentration
1,O=Cc1ccccc1C=O [Orto-phtalaldehyde],0.55%
2,O=CCCCC=O [Glutaraldehyde],≥2%
